Laboratory results published in ChEMBL document CHEMBL2401670, “Synthesis and biological evaluation of rhodanine derivatives bearing a quinoline moiety as potent antimicrobial agents” (Bioorg Med Chem Lett, 2013).
Values after ≈ are worked out from the molar mass of the structure shown.

Tests used:
Staphylococcus aureus [1] = assay: Antibacterial activity against Staphylococcus aureus KCTC 503 after 24 hrs by broth microdilution method; format: functional; details: KCTC 503, 24 h
Staphylococcus aureus [2] = assay: Antibacterial activity against quinolone-resistant Staphylococcus aureus CCARM 3519 after 24 hrs by broth microdilution method; format: functional; details: CCARM 3519, 24 h
Staphylococcus aureus [3] = assay: Antibacterial activity against quinolone-resistant Staphylococcus aureus CCARM 3505 after 24 hrs by broth microdilution method; format: functional; details: CCARM 3505, 24 h
Staphylococcus aureus [4] = assay: Antibacterial activity against Staphylococcus aureus KCTC 209 after 24 hrs by broth microdilution method; format: functional; details: KCTC 209, 24 h
Staphylococcus aureus [5] = assay: Antibacterial activity against methicillin-resistant Staphylococcus aureus CCARM 3506 after 24 hrs by broth microdilution method; format: functional; details: CCARM 3506, 24 h
Escherichia coli = assay: Antibacterial activity against Escherichia coli CCARM 1356 after 24 hrs by broth microdilution method; format: functional; details: CCARM 1356, 24 h
Staphylococcus aureus [6] = assay: Antibacterial activity against Staphylococcus aureus RN4220 after 24 hrs by broth microdilution method; format: functional; details: RN4220, 24 h
Staphylococcus aureus [7] = assay: Antibacterial activity against methicillin-resistant Staphylococcus aureus CCARM 3167 after 24 hrs by broth microdilution method; format: functional; details: CCARM 3167, 24 h
Staphylococcus aureus [8] = assay: Ratio of gatifloxacin MIC to compound MIC for quinolone-resistant Staphylococcus aureus CCARM 3519; format: functional
Staphylococcus aureus [9] = assay: Ratio of norfloxacin MIC to compound MIC for quinolone-resistant Staphylococcus aureus CCARM 3519; format: functional
Staphylococcus aureus [10] = assay: Ratio of moxifloxacin MIC to compound MIC for quinolone-resistant Staphylococcus aureus CCARM 3519; format: functional
HeLa = assay: Cytotoxicity against human HeLa cells after 48 hrs by MTT assay; format: cell-based
Staphylococcus aureus [11] = assay: Ratio of norfloxacin MIC to compound MIC for quinolone-resistant Staphylococcus aureus CCARM 3505; format: functional
Staphylococcus aureus [12] = assay: Ratio of moxifloxacin MIC to compound MIC for quinolone-resistant Staphylococcus aureus CCARM 3505; format: functional
Staphylococcus aureus [13] = assay: Ratio of norfloxacin MIC to compound MIC for methicillin-resistant Staphylococcus aureus CCARM 3167; format: functional
Staphylococcus aureus [14] = assay: Ratio of norfloxacin MIC to compound MIC for methicillin-resistant Staphylococcus aureus CCARM 3506; format: functional
Staphylococcus aureus [15] = assay: Ratio of gatifloxacin MIC to compound MIC for quinolone-resistant Staphylococcus aureus CCARM 3505; format: functional

`O=C(O)[C@H](Cc1ccccc1)N1C(=O)/C(=C/c2cc3cc(OCc4ccccc4Cl)ccc3nc2Cl)SC1=S` gave an MIC (Staphylococcus aureus [1]) of 8 µg/mL (≈ 13.4 µM), an MIC (Staphylococcus aureus [2]) of 2 µg/mL (≈ 3.36 µM) and an MIC (Staphylococcus aureus [3]) of 2 µg/mL (≈ 3.36 µM). For the same molecule, the MIC (Staphylococcus aureus [4]) was 64 µg/mL (≈ 107 µM), the MIC (Staphylococcus aureus [5]) was 2 µg/mL (≈ 3.36 µM) and the MIC (Escherichia coli) was over 64 µg/mL. For the same molecule, the MIC (Staphylococcus aureus [6]) was 4 µg/mL (≈ 6.72 µM) and the MIC (Staphylococcus aureus [7]) was 2 µg/mL (≈ 3.36 µM).
Work on `CCC(C)[C@@H](C(=O)O)N1C(=O)/C(=C/c2cc3cc(OCc4cccc(Cl)c4)ccc3nc2Cl)SC1=S` (some centres undefined) yielded an MIC (Staphylococcus aureus [1]) of 4 µg/mL (≈ 7.12 µM), an MIC (Staphylococcus aureus [2]) of 2 µg/mL (≈ 3.56 µM) and an MIC (Staphylococcus aureus [3]) of 1 µg/mL (≈ 1.78 µM). It also gave an MIC (Staphylococcus aureus [4]) of over 64 µg/mL, an MIC (Staphylococcus aureus [5]) of 1 µg/mL (≈ 1.78 µM) and an MIC (Escherichia coli) of over 64 µg/mL. It also gave an MIC (Staphylococcus aureus [6]) of 2 µg/mL (≈ 3.56 µM) and an MIC (Staphylococcus aureus [7]) of 2 µg/mL (≈ 3.56 µM).
`O=C(O)[C@H](Cc1ccccc1)N1C(=O)/C(=C/c2cc3cc(OCc4ccccc4F)ccc3nc2Cl)SC1=S` was tested, and the MIC (Staphylococcus aureus [1]) was 8 µg/mL (≈ 13.8 µM), the MIC (Staphylococcus aureus [2]) was 2 µg/mL (≈ 3.45 µM) and the MIC (Staphylococcus aureus [3]) was 2 µg/mL (≈ 3.45 µM). It also gave an MIC (Staphylococcus aureus [4]) of 64 µg/mL (≈ 111 µM), an MIC (Staphylococcus aureus [5]) of 2 µg/mL (≈ 3.45 µM) and an MIC (Escherichia coli) of over 64 µg/mL. For the same molecule, the MIC (Staphylococcus aureus [6]) was 4 µg/mL (≈ 6.91 µM) and the MIC (Staphylococcus aureus [7]) was 1 µg/mL (≈ 1.73 µM).
For `CC(C)C[C@@H](C(=O)O)N1C(=O)/C(=C/c2cc3cc(OCc4ccc(F)cc4)ccc3nc2Cl)SC1=S`, the MIC (Staphylococcus aureus [1]) was 8 µg/mL (≈ 14.7 µM), the MIC (Staphylococcus aureus [2]) was 1 µg/mL (≈ 1.83 µM) and the MIC (Staphylococcus aureus [3]) was 2 µg/mL (≈ 3.67 µM). It also gave an MIC (Staphylococcus aureus [4]) of 8 µg/mL (≈ 14.7 µM), an MIC (Staphylococcus aureus [5]) of 2 µg/mL (≈ 3.67 µM) and an MIC (Escherichia coli) of over 64 µg/mL. The MIC (Staphylococcus aureus [6]) was 2 µg/mL (≈ 3.67 µM) and the MIC (Staphylococcus aureus [7]) was 2 µg/mL (≈ 3.67 µM).
`Cc1ccc(COc2ccc3nc(Cl)c(/C=C4\SC(=S)N([C@@H](Cc5ccccc5)C(=O)O)C4=O)cc3c2)cc1` showed a Ratio (Staphylococcus aureus [8]) of 4, a Ratio (Staphylococcus aureus [9]) of 4 and an MIC (Staphylococcus aureus [1]) of 8 µg/mL (≈ 13.9 µM). For the same molecule, the Ratio (Staphylococcus aureus [10]) was 4, the MIC (Staphylococcus aureus [2]) was 1 µg/mL (≈ 1.74 µM) and the MIC (Staphylococcus aureus [3]) was 1 µg/mL (≈ 1.74 µM). The MIC (Staphylococcus aureus [4]) was 8 µg/mL (≈ 13.9 µM), the IC50 (HeLa) was 13.3 µg/mL (≈ 23.1 µM) and the MIC (Staphylococcus aureus [5]) was 1 µg/mL (≈ 1.74 µM). For the same molecule, the MIC (Escherichia coli) was over 64 µg/mL, the Ratio (Staphylococcus aureus [11]) was 4 and the Ratio (Staphylococcus aureus [12]) was 4. For the same molecule, the MIC (Staphylococcus aureus [6]) was 2 µg/mL (≈ 3.48 µM), the MIC (Staphylococcus aureus [7]) was 1 µg/mL (≈ 1.74 µM) and the Ratio (Staphylococcus aureus [13]) was 4. For the same molecule, the Ratio (Staphylococcus aureus [14]) was 4 and the Ratio (Staphylococcus aureus [15]) was 4.
Molecule `CC(C)C[C@@H](C(=O)O)N1C(=O)/C(=C/c2cc3cc(OCc4ccc(Cl)cc4)ccc3nc2Cl)SC1=S` has a Ratio (Staphylococcus aureus [8]) of 4, a Ratio (Staphylococcus aureus [9]) of 4 and an MIC (Staphylococcus aureus [1]) of 4 µg/mL (≈ 7.12 µM). It also gave a Ratio (Staphylococcus aureus [10]) of 4, an MIC (Staphylococcus aureus [2]) of 1 µg/mL (≈ 1.78 µM) and an MIC (Staphylococcus aureus [3]) of 1 µg/mL (≈ 1.78 µM). For the same molecule, the MIC (Staphylococcus aureus [4]) was 4 µg/mL (≈ 7.12 µM), the MIC (Staphylococcus aureus [5]) was 1 µg/mL (≈ 1.78 µM) and the MIC (Escherichia coli) was over 64 µg/mL. It also gave a Ratio (Staphylococcus aureus [11]) of 4, a Ratio (Staphylococcus aureus [12]) of 4 and an MIC (Staphylococcus aureus [6]) of 1 µg/mL (≈ 1.78 µM). For the same molecule, the MIC (Staphylococcus aureus [7]) was 1 µg/mL (≈ 1.78 µM), the Ratio (Staphylococcus aureus [13]) was 4 and the Ratio (Staphylococcus aureus [14]) was 4. It also gave a Ratio (Staphylococcus aureus [15]) of 4.
With `O=C(O)[C@H](Cc1ccccc1)N1C(=O)/C(=C/c2cc3cc(OCc4ccc(Cl)cc4)ccc3nc2Cl)SC1=S` the MIC (Staphylococcus aureus [1]) was 4 µg/mL (≈ 6.72 µM), the MIC (Staphylococcus aureus [2]) was 2 µg/mL (≈ 3.36 µM) and the MIC (Staphylococcus aureus [3]) was 2 µg/mL (≈ 3.36 µM). For the same molecule, the MIC (Staphylococcus aureus [4]) was 8 µg/mL (≈ 13.4 µM), the MIC (Staphylococcus aureus [5]) was 2 µg/mL (≈ 3.36 µM) and the MIC (Escherichia coli) was over 64 µg/mL. The MIC (Staphylococcus aureus [6]) was 4 µg/mL (≈ 6.72 µM) and the MIC (Staphylococcus aureus [7]) was 2 µg/mL (≈ 3.36 µM).
`CCC(C)[C@@H](C(=O)O)N1C(=O)/C(=C/c2cc3cc(OCc4ccc(C)cc4)ccc3nc2Cl)SC1=S` (some centres undefined) showed an MIC (Staphylococcus aureus [1]) of 4 µg/mL (≈ 7.39 µM), an MIC (Staphylococcus aureus [2]) of 2 µg/mL (≈ 3.7 µM) and an MIC (Staphylococcus aureus [3]) of 2 µg/mL (≈ 3.7 µM). For the same molecule, the MIC (Staphylococcus aureus [4]) was 4 µg/mL (≈ 7.39 µM), the IC50 (HeLa) was 9.09 µg/mL (≈ 16.8 µM) and the MIC (Staphylococcus aureus [5]) was 2 µg/mL (≈ 3.7 µM). The MIC (Escherichia coli) was over 64 µg/mL, the MIC (Staphylococcus aureus [6]) was 2 µg/mL (≈ 3.7 µM) and the MIC (Staphylococcus aureus [7]) was 2 µg/mL (≈ 3.7 µM).
`O=C(O)[C@H](Cc1ccccc1)N1C(=O)/C(=C/c2cc3cc(OCc4cccc(F)c4)ccc3nc2Cl)SC1=S` showed an MIC (Staphylococcus aureus [1]) of 4 µg/mL (≈ 6.91 µM), an MIC (Staphylococcus aureus [2]) of 2 µg/mL (≈ 3.45 µM) and an MIC (Staphylococcus aureus [3]) of 1 µg/mL (≈ 1.73 µM). For the same molecule, the MIC (Staphylococcus aureus [4]) was 64 µg/mL (≈ 111 µM), the MIC (Staphylococcus aureus [5]) was 1 µg/mL (≈ 1.73 µM) and the MIC (Escherichia coli) was over 64 µg/mL. For the same molecule, the MIC (Staphylococcus aureus [6]) was 4 µg/mL (≈ 6.91 µM) and the MIC (Staphylococcus aureus [7]) was 2 µg/mL (≈ 3.45 µM).
For `CC(C)C[C@@H](C(=O)O)N1C(=O)/C(=C/c2cc3cc(OCc4ccccc4Cl)ccc3nc2Cl)SC1=S`, the MIC (Staphylococcus aureus [1]) was 8 µg/mL (≈ 14.2 µM), the MIC (Staphylococcus aureus [2]) was 2 µg/mL (≈ 3.56 µM) and the MIC (Staphylococcus aureus [3]) was 1 µg/mL (≈ 1.78 µM). It also gave an MIC (Staphylococcus aureus [4]) of 4 µg/mL (≈ 7.12 µM), an MIC (Staphylococcus aureus [5]) of 1 µg/mL (≈ 1.78 µM) and an MIC (Escherichia coli) of over 64 µg/mL. For the same molecule, the MIC (Staphylococcus aureus [6]) was 1 µg/mL (≈ 1.78 µM) and the MIC (Staphylococcus aureus [7]) was 1 µg/mL (≈ 1.78 µM).
`COc1c(N2CCNC(C)C2)c(F)cc2c(=O)c(C(=O)O)cn(C3CC3)c12` (centres undefined) [GATIFLOXACIN] was tested, and the MIC (Staphylococcus aureus [1]) was 4 µg/mL (≈ 10.7 µM), the MIC (Staphylococcus aureus [2]) was 4 µg/mL (≈ 10.7 µM) and the MIC (Staphylococcus aureus [3]) was 8 µg/mL (≈ 21.3 µM). For the same molecule, the MIC (Staphylococcus aureus [4]) was 2 µg/mL (≈ 5.33 µM), the MIC (Staphylococcus aureus [5]) was 1 µg/mL (≈ 2.66 µM) and the MIC (Escherichia coli) was 16 µg/mL (≈ 42.6 µM). It also gave an MIC (Staphylococcus aureus [6]) of 0.25 µg/mL (≈ 0.666 µM) and an MIC (Staphylococcus aureus [7]) of 2 µg/mL (≈ 5.33 µM).
For `COc1c(N2C[C@@H]3CCCN[C@@H]3C2)c(F)cc2c(=O)c(C(=O)O)cn(C3CC3)c12` [MOXIFLOXACIN], the MIC (Staphylococcus aureus [2]) was 4 µg/mL (≈ 9.96 µM), the MIC (Escherichia coli) was over 64 µg/mL and the MIC (Staphylococcus aureus [6]) was 0.25 µg/mL (≈ 0.623 µM).
